What was measured:
[1] = molecular target: Mitogen-activated protein kinase kinase kinase 10 (Homo sapiens) (UniProt Q02779); conditions: Compound concentration 1000.0 nM
[2] = molecular target: Serine/threonine-protein kinase LATS2 (Homo sapiens) (UniProt Q9NRM7); conditions: Compound concentration 1000.0 nM
[3] = molecular target: Receptor tyrosine-protein kinase erbB-2 (Homo sapiens) (UniProt P04626); conditions: Compound concentration 1000.0 nM
[4] = molecular target: 5-hydroxytryptamine receptor 3A (Homo sapiens) (UniProt P46098); conditions: Compound concentration 10.0 uM
[5] = molecular target: Mitogen-activated protein kinase kinase kinase 5 (Homo sapiens) (UniProt Q99683); conditions: Compound concentration 1000.0 nM
[6] = molecular target: Serine/threonine-protein kinase PknB (Mycobacterium tuberculosis) (UniProt P9WI81); conditions: Compound concentration 1000.0 nM
[7] = molecular target: Alpha-1A adrenergic receptor (Homo sapiens) (UniProt P35348); conditions: Compound concentration 10.0 uM
Sequence of Alpha-1A adrenergic receptor (Homo sapiens) (P35348 whole entry): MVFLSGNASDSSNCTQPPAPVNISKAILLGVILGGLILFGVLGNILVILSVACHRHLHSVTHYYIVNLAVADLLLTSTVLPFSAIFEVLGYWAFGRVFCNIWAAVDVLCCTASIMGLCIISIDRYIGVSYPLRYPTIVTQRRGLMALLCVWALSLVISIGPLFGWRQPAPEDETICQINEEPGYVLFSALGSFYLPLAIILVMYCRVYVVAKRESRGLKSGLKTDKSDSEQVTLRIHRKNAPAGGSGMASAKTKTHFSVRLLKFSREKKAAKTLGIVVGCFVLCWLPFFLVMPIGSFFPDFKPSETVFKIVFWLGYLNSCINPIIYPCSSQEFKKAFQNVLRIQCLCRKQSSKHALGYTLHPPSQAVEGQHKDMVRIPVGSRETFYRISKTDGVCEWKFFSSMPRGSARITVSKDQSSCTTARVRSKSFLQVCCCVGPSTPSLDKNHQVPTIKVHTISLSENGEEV

[8] = molecular target: Serine/threonine-protein kinase 25 (Homo sapiens) (UniProt O00506); conditions: Compound concentration 1000.0 nM
Sequence of Serine/threonine-protein kinase 25 (Homo sapiens) (O00506 whole entry, looked up): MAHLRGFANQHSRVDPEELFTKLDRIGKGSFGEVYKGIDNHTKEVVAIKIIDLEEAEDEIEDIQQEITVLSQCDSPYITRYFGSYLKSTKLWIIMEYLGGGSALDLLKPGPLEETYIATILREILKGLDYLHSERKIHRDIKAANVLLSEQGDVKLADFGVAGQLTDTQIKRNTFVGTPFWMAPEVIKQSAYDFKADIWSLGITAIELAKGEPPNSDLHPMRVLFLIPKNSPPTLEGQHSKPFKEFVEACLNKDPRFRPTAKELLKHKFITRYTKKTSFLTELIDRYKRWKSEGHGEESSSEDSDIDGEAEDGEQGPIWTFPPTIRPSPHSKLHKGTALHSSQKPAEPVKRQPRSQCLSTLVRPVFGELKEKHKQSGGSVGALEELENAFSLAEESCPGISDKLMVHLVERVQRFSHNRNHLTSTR

[9] = molecular target: Phosphatidylinositol 5-phosphate 4-kinase type-2 gamma (Homo sapiens) (UniProt Q8TBX8); conditions: Compound concentration 1000.0 nM
[10] = molecular target: Casein kinase I isoform epsilon (Homo sapiens) (UniProt P49674); conditions: Compound concentration 1000.0 nM
[11] = molecular target: Epithelial discoidin domain-containing receptor 1 (Homo sapiens) (UniProt Q08345); conditions: Compound concentration 1000.0 nM
[12] = molecular target: Serine/threonine-protein kinase 17A (Homo sapiens) (UniProt Q9UEE5); conditions: Compound concentration 1000.0 nM
Sequence of Serine/threonine-protein kinase 17A (Homo sapiens) (Q9UEE5 whole entry): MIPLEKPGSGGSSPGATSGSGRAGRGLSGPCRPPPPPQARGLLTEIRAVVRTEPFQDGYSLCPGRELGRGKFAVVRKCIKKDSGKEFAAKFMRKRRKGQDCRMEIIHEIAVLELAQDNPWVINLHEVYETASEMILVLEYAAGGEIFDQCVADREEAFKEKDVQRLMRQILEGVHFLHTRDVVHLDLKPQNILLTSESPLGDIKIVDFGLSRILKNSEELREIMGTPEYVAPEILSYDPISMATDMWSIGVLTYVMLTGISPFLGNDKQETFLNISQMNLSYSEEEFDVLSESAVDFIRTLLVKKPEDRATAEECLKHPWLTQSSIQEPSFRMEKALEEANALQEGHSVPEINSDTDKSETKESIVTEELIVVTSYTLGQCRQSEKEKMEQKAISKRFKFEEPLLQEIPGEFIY

[13] = molecular target: Serine/threonine-protein kinase tousled-like 2 (Homo sapiens) (UniProt Q86UE8); conditions: Compound concentration 1000.0 nM
[14] = tested on: Receptor-type tyrosine-protein kinase FLT3 (Homo sapiens), P36888 [D835Y]; conditions: Compound concentration 1000.0 nM
[15] = molecular target: Tyrosine-protein kinase JAK3 (Homo sapiens) (UniProt P52333); conditions: Compound concentration 1000.0 nM
[16] = molecular target: Non-receptor tyrosine-protein kinase TYK2 (Homo sapiens) (UniProt P29597); conditions: Compound concentration 1000.0 nM
Sequence of Non-receptor tyrosine-protein kinase TYK2 (Homo sapiens) (P29597 whole entry): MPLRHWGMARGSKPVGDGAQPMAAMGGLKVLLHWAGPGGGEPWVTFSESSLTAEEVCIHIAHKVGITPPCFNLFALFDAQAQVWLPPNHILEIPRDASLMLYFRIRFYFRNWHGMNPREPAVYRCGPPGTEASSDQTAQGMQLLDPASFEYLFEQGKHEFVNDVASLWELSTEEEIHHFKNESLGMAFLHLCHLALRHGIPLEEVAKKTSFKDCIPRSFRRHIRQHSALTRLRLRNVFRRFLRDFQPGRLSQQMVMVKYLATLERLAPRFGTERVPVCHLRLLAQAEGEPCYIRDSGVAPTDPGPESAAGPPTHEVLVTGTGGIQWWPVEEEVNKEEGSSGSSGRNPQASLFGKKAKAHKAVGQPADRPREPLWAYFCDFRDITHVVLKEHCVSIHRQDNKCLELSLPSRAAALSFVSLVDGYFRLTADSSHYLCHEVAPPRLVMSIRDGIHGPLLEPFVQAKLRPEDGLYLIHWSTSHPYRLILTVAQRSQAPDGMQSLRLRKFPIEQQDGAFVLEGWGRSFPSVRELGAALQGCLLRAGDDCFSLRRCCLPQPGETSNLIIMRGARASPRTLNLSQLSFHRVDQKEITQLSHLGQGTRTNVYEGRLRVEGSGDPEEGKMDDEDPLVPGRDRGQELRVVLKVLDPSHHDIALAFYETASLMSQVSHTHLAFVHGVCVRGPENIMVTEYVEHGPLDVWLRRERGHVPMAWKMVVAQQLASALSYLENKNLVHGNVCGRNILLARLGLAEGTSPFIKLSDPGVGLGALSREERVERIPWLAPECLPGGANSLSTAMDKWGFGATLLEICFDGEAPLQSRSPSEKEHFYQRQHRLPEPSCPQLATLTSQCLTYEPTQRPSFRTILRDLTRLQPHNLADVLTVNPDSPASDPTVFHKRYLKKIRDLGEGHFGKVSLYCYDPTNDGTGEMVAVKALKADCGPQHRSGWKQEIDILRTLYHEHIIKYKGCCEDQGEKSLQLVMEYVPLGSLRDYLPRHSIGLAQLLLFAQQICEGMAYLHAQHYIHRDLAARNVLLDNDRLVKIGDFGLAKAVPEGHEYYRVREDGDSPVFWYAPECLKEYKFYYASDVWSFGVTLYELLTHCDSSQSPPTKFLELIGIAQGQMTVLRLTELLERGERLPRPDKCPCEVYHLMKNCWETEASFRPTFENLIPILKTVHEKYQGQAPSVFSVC

[17] = molecular target: Serine/threonine-protein kinase STK11 (Homo sapiens) (UniProt Q15831); conditions: Compound concentration 1000.0 nM
[18] = molecular target: Serine/threonine-protein kinase SIK2 (Homo sapiens) (UniProt Q9H0K1); conditions: Compound concentration 1000.0 nM
[19] = molecular target: Protein kinase C epsilon type (Homo sapiens) (UniProt Q02156); conditions: Compound concentration 1000.0 nM
[20] = molecular target: Phosphatidylinositol 4-kinase beta (Homo sapiens) (UniProt Q9UBF8); conditions: Compound concentration 1000.0 nM
Sequence of Phosphatidylinositol 4-kinase beta (Homo sapiens) (Q9UBF8 2-816 limits assumed): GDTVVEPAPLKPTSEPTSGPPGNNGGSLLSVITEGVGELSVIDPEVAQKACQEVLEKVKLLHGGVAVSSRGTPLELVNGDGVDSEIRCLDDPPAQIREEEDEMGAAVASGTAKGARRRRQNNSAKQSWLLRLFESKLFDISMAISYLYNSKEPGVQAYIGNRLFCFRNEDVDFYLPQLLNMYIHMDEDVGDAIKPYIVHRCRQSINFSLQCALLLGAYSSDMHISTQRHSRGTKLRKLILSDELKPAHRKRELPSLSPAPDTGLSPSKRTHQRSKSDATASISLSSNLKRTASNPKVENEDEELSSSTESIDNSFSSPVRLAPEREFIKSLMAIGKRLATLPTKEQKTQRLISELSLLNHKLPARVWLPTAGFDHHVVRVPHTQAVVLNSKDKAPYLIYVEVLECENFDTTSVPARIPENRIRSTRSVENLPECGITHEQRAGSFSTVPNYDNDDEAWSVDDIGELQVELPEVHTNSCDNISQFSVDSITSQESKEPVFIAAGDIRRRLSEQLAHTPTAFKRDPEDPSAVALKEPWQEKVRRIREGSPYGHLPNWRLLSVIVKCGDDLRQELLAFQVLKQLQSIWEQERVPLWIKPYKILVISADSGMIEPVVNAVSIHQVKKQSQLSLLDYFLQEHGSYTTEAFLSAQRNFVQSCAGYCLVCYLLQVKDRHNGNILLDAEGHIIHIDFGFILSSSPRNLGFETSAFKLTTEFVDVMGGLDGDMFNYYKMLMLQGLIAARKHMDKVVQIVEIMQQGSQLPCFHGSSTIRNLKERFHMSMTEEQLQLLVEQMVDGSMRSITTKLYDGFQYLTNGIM

[21] = molecular target: Calcium/calmodulin-dependent protein kinase type 1G (Homo sapiens) (UniProt Q96NX5); conditions: Compound concentration 1000.0 nM
[22] = molecular target: Alpha-2A adrenergic receptor (Homo sapiens) (UniProt P08913); conditions: Compound concentration 10.0 uM
[23] = molecular target: Mast/stem cell growth factor receptor Kit (Homo sapiens) (UniProt P10721); conditions: Compound concentration 1000.0 nM
[24] = molecular target: Cyclin-dependent kinase-like 1 (Homo sapiens) (UniProt Q00532); conditions: Compound concentration 1000.0 nM
[25] = tested on: Phosphatidylinositol 4,5-bisphosphate 3-kinase catalytic subunit alpha isoform (Homo sapiens), P42336 [E545K]; conditions: Compound concentration 1000.0 nM
[26] = molecular target: Phosphatidylinositol 5-phosphate 4-kinase type-2 beta (Homo sapiens) (UniProt P78356); conditions: Compound concentration 1000.0 nM
[27] = tested on: Receptor-type tyrosine-protein kinase FLT3 (Homo sapiens), P36888 [D835V]; conditions: Compound concentration 1000.0 nM
[28] = molecular target: Serine/threonine-protein kinase N1 (Homo sapiens) (UniProt Q16512); conditions: Compound concentration 1000.0 nM
[29] = molecular target: Serine/threonine-protein kinase N2 (Homo sapiens) (UniProt Q16513); conditions: Compound concentration 1000.0 nM
[30] = molecular target: Citron Rho-interacting kinase (Homo sapiens) (UniProt O14578); conditions: Compound concentration 1000.0 nM
[31] = tested on: Phosphatidylinositol 4,5-bisphosphate 3-kinase catalytic subunit alpha isoform (Homo sapiens), P42336 [M1043I]; conditions: Compound concentration 1000.0 nM
[32] = tested on: Epidermal growth factor receptor (Homo sapiens), P00533 [L861Q]; conditions: Compound concentration 1000.0 nM
[33] = organism: Rattus norvegicus; conditions: Compound concentration 10.0 uM
[34] = tested on: Epidermal growth factor receptor (Homo sapiens), P00533 [UNDEFINED MUTATION]; conditions: Compound concentration 1000.0 nM
[35] = molecular target: Calcium/calmodulin-dependent protein kinase type 1 (Homo sapiens) (UniProt Q14012); conditions: Compound concentration 1000.0 nM
[36] = molecular target: Histamine H4 receptor (Homo sapiens) (UniProt Q9H3N8); conditions: Compound concentration 10.0 uM
[37] = molecular target: Serine/threonine-protein kinase 10 (Homo sapiens) (UniProt O94804); conditions: Compound concentration 1000.0 nM
[38] = molecular target: cGMP-dependent protein kinase 1 (Homo sapiens) (UniProt Q13976); conditions: Compound concentration 1000.0 nM
[39] = tested on: Tyrosine-protein kinase ABL1 (Homo sapiens), P00519 [T315I]; conditions: Compound concentration 1000.0 nM
[40] = molecular target: Protein-tyrosine kinase 6 (Homo sapiens) (UniProt Q13882); conditions: Compound concentration 1000.0 nM
Sequence of Protein-tyrosine kinase 6 (Homo sapiens) (Q13882 whole entry, looked up): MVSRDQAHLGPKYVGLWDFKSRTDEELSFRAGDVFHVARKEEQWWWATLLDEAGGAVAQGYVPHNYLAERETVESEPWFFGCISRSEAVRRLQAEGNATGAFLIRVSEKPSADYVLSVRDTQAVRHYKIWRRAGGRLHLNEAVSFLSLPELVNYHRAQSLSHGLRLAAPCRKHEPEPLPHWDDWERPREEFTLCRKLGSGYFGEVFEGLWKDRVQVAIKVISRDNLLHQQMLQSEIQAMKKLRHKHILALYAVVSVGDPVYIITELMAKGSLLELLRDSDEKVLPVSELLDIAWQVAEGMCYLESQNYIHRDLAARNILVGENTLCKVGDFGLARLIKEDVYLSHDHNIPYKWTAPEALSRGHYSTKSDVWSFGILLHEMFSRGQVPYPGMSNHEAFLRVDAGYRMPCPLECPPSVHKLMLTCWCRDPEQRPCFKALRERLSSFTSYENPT

[41] = molecular target: Homeodomain-interacting protein kinase 3 (Homo sapiens) (UniProt Q9H422); conditions: Compound concentration 1000.0 nM
[42] = tested on: Epidermal growth factor receptor (Homo sapiens), P00533 [UNDEFINED MUTATION]; conditions: Compound concentration 1000.0 nM; remark: listed apart in the source
[43] = molecular target: Homeodomain-interacting protein kinase 1 (Homo sapiens) (UniProt Q86Z02); conditions: Compound concentration 1000.0 nM
Sequence of Homeodomain-interacting protein kinase 1 (Homo sapiens) (Q86Z02 whole entry, looked up): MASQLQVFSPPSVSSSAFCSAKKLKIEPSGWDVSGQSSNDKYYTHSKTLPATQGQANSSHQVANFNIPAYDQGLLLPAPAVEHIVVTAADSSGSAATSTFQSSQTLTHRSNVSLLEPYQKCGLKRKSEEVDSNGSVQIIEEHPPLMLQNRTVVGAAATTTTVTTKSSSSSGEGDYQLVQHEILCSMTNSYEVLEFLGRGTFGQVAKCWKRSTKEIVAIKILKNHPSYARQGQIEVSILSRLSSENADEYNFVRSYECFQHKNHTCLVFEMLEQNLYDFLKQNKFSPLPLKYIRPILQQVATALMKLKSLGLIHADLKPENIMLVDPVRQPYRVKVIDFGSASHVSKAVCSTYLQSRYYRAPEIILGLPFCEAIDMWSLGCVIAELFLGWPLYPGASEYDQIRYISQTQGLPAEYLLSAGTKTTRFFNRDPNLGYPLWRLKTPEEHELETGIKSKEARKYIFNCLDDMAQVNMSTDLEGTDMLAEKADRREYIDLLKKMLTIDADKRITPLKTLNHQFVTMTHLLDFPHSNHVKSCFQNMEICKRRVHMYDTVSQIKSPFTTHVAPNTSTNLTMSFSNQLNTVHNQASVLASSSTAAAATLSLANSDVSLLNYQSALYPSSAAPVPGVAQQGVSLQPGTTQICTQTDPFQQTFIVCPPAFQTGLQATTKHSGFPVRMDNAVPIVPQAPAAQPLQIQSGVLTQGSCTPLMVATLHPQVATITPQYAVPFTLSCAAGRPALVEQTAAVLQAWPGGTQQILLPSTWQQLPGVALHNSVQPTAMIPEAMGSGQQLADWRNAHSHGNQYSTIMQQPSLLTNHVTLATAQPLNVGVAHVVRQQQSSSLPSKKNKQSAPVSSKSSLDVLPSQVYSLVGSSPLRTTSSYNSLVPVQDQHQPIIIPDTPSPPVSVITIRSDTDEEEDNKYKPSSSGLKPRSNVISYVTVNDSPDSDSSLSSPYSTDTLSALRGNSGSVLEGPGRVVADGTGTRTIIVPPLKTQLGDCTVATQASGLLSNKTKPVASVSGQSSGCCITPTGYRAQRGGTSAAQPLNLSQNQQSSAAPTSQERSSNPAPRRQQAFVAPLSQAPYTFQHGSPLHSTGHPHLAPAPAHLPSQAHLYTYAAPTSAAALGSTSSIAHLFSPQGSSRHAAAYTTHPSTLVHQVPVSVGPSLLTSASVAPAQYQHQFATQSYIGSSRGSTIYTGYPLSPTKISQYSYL

[44] = molecular target: Ephrin type-B receptor 1 (Homo sapiens) (UniProt P54762); conditions: Compound concentration 1000.0 nM
[45] = molecular target: Tyrosine-protein kinase Tec (Homo sapiens) (UniProt P42680); conditions: Compound concentration 1000.0 nM

CO[C@@H](C)c1c(Nc2ccc([C@H](N(C)C(=O)C3CCS(=O)(=O)CC3)C(F)(F)F)cc2)cnc2cc(Cl)nn12 [NVS-MALT1] gave a residual activity [1] of 71%, a residual activity [2] of 100% and a residual activity [3] of 59%. For the same molecule, the inhibition [4] was -6.2%, the residual activity [5] was 84% and the residual activity [6] was 87%. It also gave an inhibition [7] of -7.59%, a residual activity [8] of 87% and a residual activity [9] of 91%. For the same molecule, the residual activity [10] was 66%, the residual activity [11] was 99% and the residual activity [12] was 87%. The residual activity [13] was 92%, the residual activity [14] was 59% and the residual activity [15] was 99%. The residual activity [16] was 100%, the residual activity [17] was 68% and the residual activity [18] was 87%. The residual activity [19] was 100%, the residual activity [20] was 82% and the residual activity [21] was 100%. For the same molecule, the inhibition [22] was 14.6%, the residual activity [23] was 100% and the residual activity [24] was 57%. For the same molecule, the residual activity [25] was 48%, the residual activity [26] was 100% and the residual activity [27] was 59%. It also gave a residual activity [28] of 100%, a residual activity [29] of 100% and a residual activity [30] of 94%. For the same molecule, the residual activity [31] was 100%, the residual activity [32] was 100% and the inhibition [33] was 11.6%. It also gave a residual activity [34] of 100%, a residual activity [35] of 66% and an inhibition [36] of 3.84%. The residual activity [37] was 100%, the residual activity [38] was 85% and the residual activity [39] was 87%. The residual activity [40] was 81%, the residual activity [41] was 100% and the residual activity [42] was 99%. It also gave a residual activity [43] of 40%, a residual activity [44] of 86% and a residual activity [45] of 84%.
Work on CO[C@@H](C)c1c(Nc2ccc([C@@H](N(C)C(=O)C3CCS(=O)(=O)CC3)C(F)(F)F)cc2)cnc2cc(Cl)nn12 [NVS-MALT1-C] yielded a residual activity [1] of 77%, a residual activity [2] of 88% and a residual activity [3] of 70%. It also gave an inhibition [4] of -1.2%, a residual activity [5] of 81% and a residual activity [6] of 100%. The inhibition [7] was -3.44%, the residual activity [8] was 84% and the residual activity [9] was 58%. The residual activity [10] was 59%, the residual activity [11] was 100% and the residual activity [12] was 90%. For the same molecule, the residual activity [13] was 100%, the residual activity [14] was 42% and the residual activity [15] was 98%. For the same molecule, the residual activity [16] was 98%, the residual activity [17] was 78% and the residual activity [18] was 92%. It also gave a residual activity [19] of 94%, a residual activity [20] of 100% and a residual activity [21] of 100%. The inhibition [22] was 5.1%, the residual activity [23] was 100% and the residual activity [24] was 74%. The residual activity [25] was 62%, the residual activity [26] was 100% and the residual activity [27] was 52%. For the same molecule, the residual activity [28] was 99%, the residual activity [29] was 88% and the residual activity [30] was 97%. The residual activity [31] was 100%, the residual activity [32] was 100% and the inhibition [33] was 5.14%. For the same molecule, the residual activity [34] was 90%, the residual activity [35] was 82% and the inhibition [36] was -8.46%. It also gave a residual activity [37] of 98%, a residual activity [38] of 92% and a residual activity [39] of 78%. The residual activity [40] was 100%, the residual activity [41] was 100% and the residual activity [42] was 87%. It also gave a residual activity [43] of 56%, a residual activity [44] of 92% and a residual activity [45] of 82%.

Source: ChEMBL document CHEMBL4507320, “Data for DCP probe NVS-MALT1” (2021)
